pIC50: −log10 of the molar value.
Assays:
[1] = target: porcine uterine progesterone receptor; details: read-out: IC50 for the porcine uterine progesterone receptor; ref [17]; cited from earlier work
rabbit endometrium = test: McPhail assay in estrogen-primed immature rabbits; assay type: in vivo; details: progesterone alone (method: MPA 0.15mg/kg/day)
Progesterone Receptor = target: T1, Progesterone Receptor (Homo sapiens, UniProt P06401); test: Alkaline phosphatase assay in T47D cells; assay type: cell-based; details: 20 h, progesterone at 10nM
T1 sequence (P06401 1-933): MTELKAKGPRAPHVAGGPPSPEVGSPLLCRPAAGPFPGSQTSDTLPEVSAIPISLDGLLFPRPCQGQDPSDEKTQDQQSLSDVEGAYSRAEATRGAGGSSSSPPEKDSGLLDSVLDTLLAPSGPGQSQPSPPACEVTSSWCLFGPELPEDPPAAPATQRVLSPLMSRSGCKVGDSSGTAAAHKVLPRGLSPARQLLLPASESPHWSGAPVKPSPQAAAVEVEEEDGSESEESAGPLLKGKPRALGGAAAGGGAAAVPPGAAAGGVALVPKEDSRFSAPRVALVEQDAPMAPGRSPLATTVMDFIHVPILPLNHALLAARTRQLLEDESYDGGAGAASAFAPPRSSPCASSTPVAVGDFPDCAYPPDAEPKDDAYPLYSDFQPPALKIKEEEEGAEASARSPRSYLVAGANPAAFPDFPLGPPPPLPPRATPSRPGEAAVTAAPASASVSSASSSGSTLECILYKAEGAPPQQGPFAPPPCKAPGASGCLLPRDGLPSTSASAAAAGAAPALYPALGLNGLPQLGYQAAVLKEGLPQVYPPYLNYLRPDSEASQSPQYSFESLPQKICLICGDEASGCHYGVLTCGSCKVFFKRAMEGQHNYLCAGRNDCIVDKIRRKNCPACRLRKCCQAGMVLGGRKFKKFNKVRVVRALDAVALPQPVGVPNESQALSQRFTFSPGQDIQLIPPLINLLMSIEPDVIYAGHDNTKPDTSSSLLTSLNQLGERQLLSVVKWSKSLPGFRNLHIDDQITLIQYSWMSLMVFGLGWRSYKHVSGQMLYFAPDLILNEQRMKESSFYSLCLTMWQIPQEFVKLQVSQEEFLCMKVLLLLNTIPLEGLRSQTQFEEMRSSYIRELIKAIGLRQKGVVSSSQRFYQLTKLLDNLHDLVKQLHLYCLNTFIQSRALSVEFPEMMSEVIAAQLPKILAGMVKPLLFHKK

Structure (SMILES) | pIC50 [1] | progestational histologic changes (McPhail Index), positive control (rabbit endometrium) | induction of alkaline phosphatase activity (Progesterone Receptor)
CC(=O)O[C@H]1[C@@H](O)C=C2C=C3OC(=O)C(C)=C3C[C@]2(C)[C@H]1C [PF1092A] | 7.52 | – | –
CC(=O)[C@H]1CC[C@H]2[C@@H]3CCC4=CC(=O)CC[C@]4(C)[C@H]3CC[C@]12C [Progesterone] | – | maximal progestational histologic changes were noted | significantly increased alkaline phosphatase activity

Reference: publication PMC3576019 (The Journal of steroid biochemistry and molecular biology, 2010)
